Experimental data from patent US20150359220A1, “COMPOSITIONS COMPRISING GOUGEROTIN AND A FUNGICIDE” (BAYER CROPSCIENCE LP, priority 2013, published 2015).
Where a name gives a salt, the structure may show the parent alone. Read-outs that look alike come from different tables or passages of the source.

What was measured:
Sphaerotheca fuliginea = assay: Sphaerotheca test (cucumbers)/preventive; assay type: in vivo; conditions: 7 days after inoculation
Venturia inaequalis = assay: Venturia test (apples)/preventive; conditions: for Efficacy in % found: 10 days after inoculation
Description: After the spray coating has dried on, the plants are inoculated with an aqueous conidia suspension of the causal agent of apple scab (Venturia inaequalis) and then remain for 1 day in an incubation cabinet at approximately 20° C. and a relative atmospheric humidity of 100%. The plants are then placed in a greenhouse at approximately 21° C. and a relative atmospheric humidity of approximately 90%.
The test is evaluated 10 days after the inoculation.

Phytophthora infestans = assay: whole plant or invertebrate; assay type: in vivo; conditions: for Efficacy in % found: 3 days after inoculation
Alternaria solani = assay: Alternaria test (tomatoes)/preventive; assay type: in vivo; conditions: 3 days after inoculation
Pyrenophora teres = assay: Pyrenophora teres-test (barley)/preventive; assay type: in vivo; conditions: 8 days after inoculation
Septoria tritici = assay: Septoria tritici-test (wheat)/preventive; assay type: in vivo; conditions: 21 days after inoculation
[1] = test system: Blumeria graminis fsp. hordei; assay: Blumeria test (barley)/preventive; assay type: in vivo; conditions: Table 5, 7 days after inoculation
[2] = Venturia inaequalis, 240 h, read-out: Efficacy in % found
[3] = Phytophthora infestans, topical, 72 h, read-out: Efficacy in % found

## CC1(C(=O)Nc2ccc(O)c(Cl)c2Cl)CCCCC1 [F16, fenhexamid]
Sphaerotheca fuliginea; Podosphaera fuliginea, 168 h, Table 20, 100 ppm a.i., read-out: Efficacy in % found
  pest or weed control at 100 ppm: 0%
Venturia inaequalis; [2]
  pest or weed control at 25 ppm: 0%
Phytophthora infestans; [3]
  pest or weed control at 100 ppm: 0%
Alternaria solani; Alternaria solani, topical, 72 h, Table 4, 50 ppm a.i., read-out: Efficacy in % found
  pest or weed control at 50 ppm: 50%

## OC(Cc1ccccc1Cl)(Cn1nc[nH]c1=S)C1(Cl)CC1 (stereo not shown) [F41, prothioconazole]
Sphaerotheca fuliginea; Podosphaera fuliginea, 168 h, Table 19, 1 ppm a.i., read-out: Efficacy in % found
  pest or weed control at 1 ppm: 43%
Venturia inaequalis; [2]
  pest or weed control at 1 ppm: 0%
Phytophthora infestans; [3]
  pest or weed control at 100 ppm: 45%
Alternaria solani; Alternaria solani, topical, 72 h, Table 2, 2 ppm a.i., read-out: Efficacy in % found
  pest or weed control at 2 ppm: 0%

## CSC1=N[C@@](C)(c2ccccc2)C(=O)N1Nc1ccccc1 [F114, fenamidone]
Sphaerotheca fuliginea; Podosphaera fuliginea, 168 h, Table 18, 100 ppm a.i., read-out: Efficacy in % found
  pest or weed control at 100 ppm: 21%
Venturia inaequalis; [2]
  pest or weed control at 50 ppm: 0%
Phytophthora infestans; [3]
  pest or weed control at 1 ppm: 41%
Alternaria solani; Alternaria solani, topical, 72 h, Table 3, 50 ppm a.i., read-out: Efficacy in % found
  pest or weed control at 50 ppm: 62%

## COC(=O)N(OC)c1ccccc1COc1ccn(-c2ccc(Cl)cc2)n1 [F121, pyraclostrobin]
Sphaerotheca fuliginea; Table 18, 0.5 ppm a.i.
  Efficacy in % found: 0%
Pyrenophora teres; Table 15, 31.25 ppm a.i.
  Efficacy in % found: 80%
Venturia inaequalis; Table 22, 0.5 ppm a.i.
  Efficacy in % found: 0%
Alternaria solani; Table 3, 2 ppm a.i.
  Efficacy in % found: 41%
Septoria tritici; Table 16, 31.25 ppm a.i.
  Efficacy in % found: 75%

## CON=C(C(=O)OC)c1ccccc1CON=C(C)c1cccc(C(F)(F)F)c1 [F126, trifloxystrobin]
Sphaerotheca fuliginea; Table 18, 0.5 ppm a.i.
  Efficacy in % found: 0%
Venturia inaequalis; Table 22, 0.5 ppm a.i.
  Efficacy in % found: 53%
Alternaria solani; Table 3, 2 ppm a.i.
  Efficacy in % found: 47%
Septoria tritici; Table 16, 15.625 ppm a.i.
  Efficacy in % found: 50%
Septoria tritici; Table 16, 31.25 ppm a.i.
  Efficacy in % found: 75%
[1]; 15.625 ppm a.i.
  Efficacy in % found: 50%
[1]; 31.25 ppm a.i.
  Efficacy in % found: 60%

## O=C(NCc1ncc(C(F)(F)F)cc1Cl)c1c(Cl)cccc1Cl [F143, fluopicolide]
Venturia inaequalis; Table 22, 50 ppm a.i.
  Efficacy in % found: 0%
Phytophthora infestans; Table 10, 5 ppm a.i.
  Efficacy in % found: 21%

## N#Cc1c(Cl)c(Cl)c(Cl)c(C#N)c1Cl [F155, chlorothalonil]
Pyrenophora teres; Table 14, 250 ppm a.i.
  Efficacy in % found: 50%
Venturia inaequalis; [2]
  pest or weed control at 10 ppm: 4%
Phytophthora infestans; [3]
  pest or weed control at 20 ppm: 0%
Septoria tritici; Table 17, 125 ppm a.i.
  Efficacy in % found: 57%

## C#CCOc1ccc(CCNC(=O)C(OCC#C)c2ccc(Cl)cc2)cc1OC (stereo not shown) [F206, mandipropamid]
Sphaerotheca fuliginea; Table 18, 100 ppm a.i.
  Efficacy in % found: 13%
Phytophthora infestans; Table 10, 0.25 ppm a.i.
  Efficacy in % found: 47%

## CCCOC(=O)NCCCN(C)C [F220, propamocarb hydrochloride]
Sphaerotheca fuliginea; Podosphaera fuliginea, 168 h, Table 20, 500 ppm a.i., read-out: Efficacy in % found
  pest or weed control at 500 ppm: 10%
Venturia inaequalis; [2]
  pest or weed control at 250 ppm: 0%
Phytophthora infestans; [3]
  pest or weed control at 500 ppm: 7%
Alternaria solani; Alternaria solani, topical, 72 h, Table 4, 250 ppm a.i., read-out: Efficacy in % found
  pest or weed control at 250 ppm: 12%

## COCC(=O)N(c1c(C)cccc1C)C(C)C(=O)OC (stereo not shown) [F241, metalaxyl]
Venturia inaequalis; Table 22, 50 ppm a.i.
  Efficacy in % found: 0%

## COCC(=O)N(c1c(C)cccc1C)[C@H](C)C(=O)OC [F242, metalaxyl-M]
Sphaerotheca fuliginea; Table 18, 100 ppm a.i.
  Efficacy in % found: 13%
Venturia inaequalis; Table 22, 50 ppm a.i.
  Efficacy in % found: 0%

## Cn1c(=O)c2sc3c(=O)n(C)c(=O)c3sc2c1=O [F319, 2,6-dimethyl-1H,5H-[1,4]dithiino[2,3-c:5,6-c′]dipyrrole-1,3,5,7(2H,6H)-tetrone]
Sphaerotheca fuliginea; Table 19, 50 ppm a.i.
  Efficacy in % found: 0%
Venturia inaequalis; Table 23, 25 ppm a.i.
  Efficacy in % found: 38%
Phytophthora infestans; Table 11, 50 ppm a.i.
  Efficacy in % found: 5%
Alternaria solani; Table 2, 50 ppm a.i.
  Efficacy in % found: 5%

## fosetyl-aluminium [F281]
Sphaerotheca fuliginea; Table 18, 100 ppm a.i.
  Efficacy in % found: 13%
Venturia inaequalis; Table 22, 50 ppm a.i.
  Efficacy in % found: 0%
Phytophthora infestans; Table 10, 50 ppm a.i.
  Efficacy in % found: 55%
Alternaria solani; Table 3, 50 ppm a.i.
  Efficacy in % found: 15%

## mancozeb [F174]
Sphaerotheca fuliginea; Table 19, 20 ppm a.i.
  Efficacy in % found: 0%
Venturia inaequalis; Table 23, 10 ppm a.i.
  Efficacy in % found: 0%
Phytophthora infestans; Table 11, 20 ppm a.i.
  Efficacy in % found: 0%

## phosphorous acid and its salts [F298]
Venturia inaequalis; Table 22, 50 ppm a.i.
  Efficacy in % found: 0%
Phytophthora infestans; Table 10, 500 ppm a.i.
  Efficacy in % found: 76%

## propineb [F180]
Sphaerotheca fuliginea; Table 19, 20 ppm a.i.
  Efficacy in % found: 0%
Venturia inaequalis; Table 23, 10 ppm a.i.
  Efficacy in % found: 81%
Phytophthora infestans; Table 11, 20 ppm a.i.
  Efficacy in % found: 8%
